Here are results for 19 molecules from patent US11568956B2, “Methods for identifying inhibitors of amyloid protein aggregation” (Treventis Corporation, priority 2008, dated 2023).

T1 sequence (P05067 672-711 limits assumed): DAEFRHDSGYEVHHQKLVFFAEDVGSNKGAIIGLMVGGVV

The test concerns the target T1, Aβ 1-40 (Homo sapiens, UniProt P05067).
T1 construct: ThT aggregation assays of Aβ 1-40 and alpha synuclein
The test can be described thus: ThT aggregation assay of Aβ 1-40. The format is biochemical. Here is the method:
The anti-amyloid activity of these compounds was evaluated by ThT aggregation assays of Aβ 1-40 and alpha synuclein, as set forth below. The column “A-Syn” below is a functional ThT aggregation assay of alpha synuclein.
Take `c1ccc2c(c1)CCCC2NCc1ccncc1` (stereo not shown): the IC50 was greater than 100 µM. On to `O=[N+]([O-])c1ccc(N2CCCCC2)cc1Nc1ccccc1`, for which the “Aβ - ThT (IC50/μM)” value was “INACTIVE”. The molecule `CC(C)(O)C#Cc1ccc(C(=O)N2CCN(c3ncccn3)CC2)cc1` showed an IC50 greater than 20 µM. Molecule `COc1ccc2ccccc2c1/C=N/c1ccc(S(N)(=O)=O)cc1` gave an IC50 greater than 20 µM. On the same count and under the same terms, the result for `COc1ccc(CC(=O)Nc2ccc(S(=O)(=O)Nc3nc(C)cc(C)n3)cc2)cc1` reads greater than 50 µM; that for `Cc1sc(/C=N/NC(=O)c2cccc([N+](=O)[O-])c2)cc1[N+](=O)[O-]`, greater than 20 µM.

Regarding `COc1ccc2cc(C(C)N)ccc2c1` (stereo not shown), the IC50 is greater than 100 µM.

`COc1ccc(NS(=O)(=O)c2ccc(NS(=O)(=O)c3cccs3)cc2)c(OC)c1` gave an IC50 greater than 50 µM. `COc1ccc(CNCc2ccc(F)cc2)cc1OC` had an IC50 greater than 100 µM. On the same count and under the same terms, the result for `COc1ccc(NS(=O)(=O)c2ccc(NS(=O)(=O)c3ccc(Br)s3)cc2)c(OC)c1` reads greater than 50 µM; that for `Cc1ccc(N(C)C(=O)C2CC(O)CN2C(=O)OCC(C)C)cc1C` (stereo not shown), greater than 20 µM; that for `CCOC(=O)c1c(NC(=O)c2cccc([N+](=O)[O-])c2C)sc2c1CCC2`, greater than 20 µM.

As to `CC1=NNC(=O)C1CC(=O)N/N=C/c1cccc(OCc2ccccc2)c1` (stereo not shown), the IC50 is greater than 20 µM. Consider `COc1ccccc1N1CCN(C(=O)CN(c2ccc(F)cc2)S(=O)(=O)c2ccccc2)CC1`, for which the 50% inhibitory concentration (IC50) was greater than 20 µM. On the same count and under the same terms, the value for `O=C(COc1ccccc1)Nc1ccc2c(c1)C(=O)NC2=O` was greater than 20 µM; that for `COc1ccc(C2(C(=O)Nc3ccc(S(=O)(=O)Nc4ncccn4)cc3)CCCC2)cc1OC` was greater than 50 µM; that for `COc1ccc(N(C)S(=O)(=O)c2ccc(NS(=O)(=O)c3cccs3)cc2)c(OC)c1` was greater than 20 µM.

`COc1ccccc1NC(=O)C1CC(O)CN1C(=O)OCc1ccccc1` (stereo not shown): the IC50 is greater than 20 µM. On the same count and under the same terms, the result for `O=C(CNC(=O)c1ccccc1)N/N=C/c1c[nH]nc1-c1ccccc1` reads greater than 20 µM.
